According to patent US6492180B2, “Non-invasive transdermal detection of analytes” (priority 1998, dated 2002):

Tests used:
rats [1] = experiment: Detection of 14C-caffeine administered to rats: tissue radioactivity and hydrogel extraction; assay type: in vivo, rat; details: 2.5 hours
Protocol: Rats were shaven and fasted for 24 hours prior to caffeine administration by intraperitoneal injection of ^14C labeled caffeine to the 600 gram rats. Each animal received approximately 16.7 μCi of ^14C caffeine via intraperitoneal injection of 0.5 mL of ethanol and water.
A 50% NMP:50% water-Pluronic® F127 hydrogel was applied to 2.4 cm diameter plastic disks. The disks were attached to a jacket which was affixed to the backs of the rats. The disks were removed after 2.5 hours. The gel was removed and counted. The rats were sacrificed and blood and tissue were removed for analysis from each animal. The tissue samples were placed in liquid scintillation vials with 1.5 mL of Soluene® (Packard Instruments, Downers Grove, Ill.) in order to dissolve the tissues for valid liquid scintillation counting.

[2] = In vitro 3H-cocaine transport through swine skin, diffusion cells; assay type: in vitro ADME; details: donor 20 μCi/ml, receptor 50% NMP:H2O
Protocol: The receptor solution (50% NMP:H2O) was loaded in the lower chamber. Samples from the lower chamber (100 μl) were taken every hour and counted.

rats [3] = experiment: In vivo extraction of lead through the skin of lead-fed rats with NMP hydrogel; blood lead; set-up: species or system rat; details: Sprague Dawley rats, 750-1,000 ppm lead acetate in water supply, tail vein blood, for several weeks
Protocol: Determinations of blood lead (Pb) concentrations were conducted by obtaining a blood sample from the tail vein of the animals and analyzing them using an ESA brand LeadCare® Analyzer (Chelmsford, Mass.).
At that time, a clear hydrogel formulation containing 1 gram of the copolymer Pluronic® F127 (BASP), and 2.0 mL of deionized water and 2.0 mL of N-methyl pyrrolidone (Pharmasolve®, ISP, Wayne, N.J.) was prepared. Approximately 1.2 grams of hydrogel was applied to a 2.4 cm diameter polypropylene plastic disk. The disks were attached to a jacket which was affixed to the backs of the rats. The disks were removed after 1 hour.

[4] = rat, about 16.7 μCi 14C caffeine i.p.

Q: For `Cn1c(=O)c2c(ncn2C)n(C)c1=O` [^14C caffeine, caffeine], which “Radioactivity (mean dpm ± SD), NMP-Pluronic F127 Hydrogel” value (rats [1]; extracted through rat skin into 50% NMP:50% water-Pluronic F127 hydrogel) is on record?
A: Its value is 58.82 dpm/cm^2/hr.

Q: And the “Radioactivity (mean dpm ± SD), Blood” value (rats [1]; [4])?
A: The value was 87.24 dpm/μL.

Q: And the “Radioactivity (mean dpm ± SD), Muscle” value (rats [1]; [4])?
A: Its value is 64.30 ± 8.73 dpm/mg.

Q: And the “Radioactivity (mean dpm ± SD), Skin” value (rats [1]; [4])?
A: Its value is 52.15 ± 0.07 dpm/mg.

Q: Which “flux through pig skin in vitro” value [2] does the source give for `COC(=O)[C@H]1[C@@H](OC(=O)c2ccccc2)C[C@@H]2CC[C@H]1N2C` [^3H-cocaine, cocaine] here?
A: The value was 0.00317 μg/cm^2/hr.

Q: With `CC(=O)[O-].CC(=O)[O-].[Pb+2]` [lead acetate] as the molecule, how does the blood lead levels (rats [3]) read?
A: Its blood lead levels is 50 to 60 µg/dL.
